# Experimental data published in US11364211B2, “Methods for selecting phosphatase selective and non-selective phosphatase inhibitors” (MEDICAL RESEARCH COUNCIL, priority 2015, dated 2022).
# Columns and labels:
# [1] = test system: ATF4; assay: Induction of ATF4 expression in cells (immunoblot); type: cell-based, human; details: HeLa cells, 10 μM
# Experimental: Cells (90,000 cells/ml) were plated in a 24-well plate and treated as indicated. At the end of treatment cells were lysed in 150 μl Laemmli Buffer. Lysates were boiled at 95° C. for 5 minutes, sonicated and resolved on 4-12% Bolt Bis-Tris Plus Gels (Thermo Fisher Scientific). Proteins were transferred to the nitrocellulose membrane using the iBlot 2 system (Thermo Fisher Scientific) and analysed using the following antibodies: e-IF2α-P (44-728G, Thermo Fisher Scientific, 1:1000), e-IF2α (ab5369, Abcam, 1:1000), tubulin (T5168, Sigma-Aldrich, 1:4000), BiP (610978, BD Biosciences Pharmingen, 1:1000), ATF4 (sc-200, Santa Cruz Biotechnology, 1:500), Ppp1r15a (10449-1-AP, Proteintech, 1:1000) and Ppp1r15b (14634-1-AP, Proteintech, 1:1000). Proteins were visualized using ECL Prime (GE Healthcare).
# [2] = test system: MEFs; assay: Translation rates by 35S-methionine labelling in r15a mut/mut or r15b mut/mut MEFs; type: cell-based, mouse
# Experimental: HeLa cells were maintained in Dulbecco's Modified Eagle's Media (DMEM) supplemented with penicillin, streptomycin, glutamine and 10% fetal bovine serum (FBS). Ppp1r15a −/− and Ppp1r15b −/− MEF cells were maintained in DMEM supplemented with penicillin, streptomycin, glutamine, 55 μM β-mercaptoethanol, 1X non-essential amino acids (Sigma) and 10% FBS.
# Cells (90,000 cells/ml) were plated in 12-well plates, treated as indicated, labelled with 100 μCi/ml ^35S-methionine (Hartmann Analytic) for 10 minutes at 37° C., washed with ice-cold PBS and lysed in 120 μl Laemmli Buffer. Lysates were boiled at 95° C. for 5 minutes, sonicated and resolved on 4-12% Bolt Bis-Tris Plus Gels (Thermo Fisher Scientific). Gels were then stained with InstantBlue (Expedeon) and analyzed by phosphorimaging.
smiles,measurement,setting,value
"[H]/N=C(\N)NN=Cc1cccc(Cl)c1Cl [Example 1, (E)-2-(2,3-dichlorobenzylidene)hydrazine-1-carboximidamide]",expression of ATF4 in cells,[1],induced expression
same,translation attenuation upon inactivation of R15A,[2],rendered persistent
